Values joined by “and” are separate entries in the source; they are usually repeats but may differ in a detail not shown here. Equal entries are not always repeated. Where two headings read alike, the source gives them in different places.
Assays:
[1] = system: C. jejuni (strain 81-176, ATCC BAA-2151); assay: Growth inhibition, solid plates (CFU); assay type: cell-based, Campylobacter jejuni; conditions: 0.5 mM metal salt in combination with 2 mM DMG
C. jejuni 81-176 = assay: Growth inhibition, liquid 96-well checkerboard (OD600, MIC, MBC); assay type: cell-based, Campylobacter jejuni; conditions: for OD600: DMG 0 mM, 24 h
Procedure: Growth inhibition assays: liquid (96-well) plates experiments. This type of experiment can only be conducted with C. jejuni since the gas requirement for C. concisus (H2-enriched microaerobic) is not compatible with the use of 96-well plates. C. jejuni cells were grown as described above, harvested, and resuspended in sterile NaCl (8 g/L) to an OD600 of 0.1, corresponding approximately to 5×10^8 to 1×10^9 cells/mL. […] Wells were serially (2-fold) diluted in each direction (horizontal and vertical) to introduce all combinations. Wells with no DMG or metal compounds served as (positive) growth controls, and wells with no bacteria served as background (negative growth) controls. A typical protocol and loading plan are described in Table 7. The starting inoculum was at OD600 of 0.05, which corresponds approximately to 2.5×10^8 cells/mL to 5×10^8 cells/mL. After 24 hours incubation under microaerobic conditions at 37° C., OD600 was recorded using a 96 well-plate reader (Microtek). […] Resulting growth (or lack of growth) was examined after overnight culturing; the lowest concentration that inhibits 99.9% of the original culture was defined as MBC. MIC and MBC were determined based on tests (plates) done in triplicate.

Aβ40 peptide [2] = molecular target: T1, Aβ40 peptide (Homo sapiens, UniProt P05067); assay: Thioflavin T (ThT)-based Aβ40 aggregation assay; assay type: biochemical; set-up: purchased rPeptides, Watkinsville, Ga., USA kit #A-1180-1; host or cells: E. coli; conditions: for increase of average Aβ40 aggregation rate compared to no supplemental metal control: pH 7.4; for Relative Aβ40 aggregation rate (% control): DMG 0 μM; for Aβ40 peptide aggregation under all pHs tested: pH 6.5, 7.5 or 8.5, 25 mM Aβ40, CuSO4 25 mM, ZnSO4 10 mM or DMG 100 mM (so in the source)
Procedure: Amyloid Beta aggregation. […] This kit contained human recombinant Aβ40 peptide (>97% pure, as determined by manufacturer's HPLC) with the following sequence […] (SEQ ID NO:1), as provided by the manufacturer. […] The aggregation of Aβ40, was shown by the increase in fluorescence (lex=440 nm/lem=485 nm) over time, was followed for 60 min or 120 min, with reading every three or five min, using a Synergy MX reader (Biotek, Winooski, Vt.). A ThT-only background control (no Aβ40 peptide) was included in triplicate in all experiments and subtracted from all readings. The aggregation rate, defined as the increase in fluorescence per min (RFU/min), was calculated by using the formula [A(440,485) at T40min)−A(440,485) at T20min]/20.
Target sequence in this assay (P05067 672-711): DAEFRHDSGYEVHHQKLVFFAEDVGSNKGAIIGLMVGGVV

[3] = system: C. jejuni (strain NCTC 11168); assay: C. jejuni-chicken colonization experiment; assay type: in vivo, chickens; conditions: Experiment 1, ad libitum CuSO4 (0.2 mM), 9 days p.i.
Procedure: Since chickens are natural hosts for C. jejuni, and chicken meat is one of the main sources of campylobacteriosis in humans, it was important to test the efficacy of DMG alone or in combination with copper in this animal model. Two independent trials were conducted, as described in FIG. 22. In both trials, the treatment was administered through ad libitum drinks, starting two to three days before C. jejuni inoculation (with strain NCTC 11168), and going through the end of each experiment. […] Nine days after inoculation with C. jejuni, chickens were euthanized, and their ceca were isolated for bacterial count. […] The treatment was administered two days before inoculation with C. jejuni, and chicken ceca were harvested eight days after inoculation.

[4] = mouse, in vivo
Aβ40 peptide [5] = molecular target: T1, Aβ40 peptide; assay: Isothermal titration calorimetry; assay type: binding; set-up: purchased rPeptides, Watkinsville, Ga., USA kit #A-1180-1; host or cells: E. coli; DS (entropy): unit not given here; conditions: 20 μM Aβ40, 25° C.
Source text: Nickel binding to human recombinant Aβ40 peptide is confirmed by isothermal titration calorimetry. Isothermal titration calorimetry (ITC) has been already used to analyze copper or zinc binding to various Aβ peptides, including Ab40 (Talmard et al. Biochemistry 46, 13658-13666 (2007); Sacco et al. JBIC Journal of Biological Inorganic Chemistry 17, 531-541 (2012); Hatcher et al. The journal of physical chemistry B 112, 8160-8164 (2008)). In the current study, we used ITC to determine whether nickel can bind the Aβ40 peptide. The peptide (same used in ThT-based aggregation assays) was present in the sample cell at a concentration of 20 μM. Twenty injections of NiSO4 (1 mM solution, 5 μM increments in sample cell) were performed every 5 min under constant stirring (350 rpm) at 25° C., and the heat release was measured (FIG. 9). The heat release profile indicates Ni binding to the peptide (FIG. 9, top Panel).
Isothermal Titration Calorimetry. […] Briefly, 1 mg of lyophilized Aβ40 peptide (#A-1157-2, rPeptides) was resuspended with 1% NH4OH to a concentration of 250 μM, sonicated for 15-20 sec, before being diluted to a final concentration of 20 μM Aβ40 using ddH2O and TBS 10×, pH 7.4 (working buffer: NH4OH 0.2%, TBS 1×, pH 7.4 (“NTBS”)). […] All samples were degassed for 15 min at 25° C. before use. Titration was initiated using a program for 20 injections (2.38 μL each, every 5 min) with continuous stirring (350 rpm) at constant temperature (25° C.). ITC data were analyzed using NanoAnalyze 1.2 software (TA Instruments). Data obtained with the control experiment (Aβ40 peptide in sample cell, buffer in syringe) were subtracted from each experiment to account for any injection-related heat change.
Target sequence in this assay (P05067 672-711): as above

Aβ40 peptide [6] = molecular target: T1, Aβ40 peptide; set-up: yields Aβ peptides of various lengths (38, 40 or 42 amino acids); conditions: Talmard et al. 2007; read-out: Kd previously reported; cited from earlier work
Target sequence in this assay (P05067 672-711 limits assumed): as the sequence (P05067 672-711) above

[7] = cited from earlier work
[8] = Acute oral LD50 (literature); assay type: in vivo, mice
[9] = 100 mM metal (so in the source)
[10] = experiment A, supplemental metal 10 μM
[11] = experiment B, supplemental metal 100 μM

| Structure (SMILES) | effect on C. jejuni growth [1] | MBC (C. jejuni 81-176; metal with DMG 0 mM) [µM] | MIC (C. jejuni 81-176; metal with DMG 0 mM) [µM] | MBC (C. jejuni 81-176; metal with DMG 0.5 mM) [µM] | MIC (C. jejuni 81-176; metal with DMG 0.5 mM) [µM] | MBC (C. jejuni 81-176; metal with DMG 1 mM) [µM] | MIC (C. jejuni 81-176; metal with DMG 1 mM) [µM] | MBC (C. jejuni 81-176; metal with DMG 4 mM) [µM] | MIC (C. jejuni 81-176; metal with DMG 4 mM) [µM] | increase of average Aβ40 aggregation rate compared to no supplemental metal control (Aβ40 peptide [2]; 10 mM metal (so in the source)) | increase of average Aβ40 aggregation rate compared to no supplemental metal control (Aβ40 peptide [2]; [9]) | Relative Aβ40 aggregation rate (% control) (Aβ40 peptide [2]; [10]) | also measured |
| --- | --- | --- | --- | --- | --- | --- | --- | --- | --- | --- | --- | --- | --- |
| [Cl-].[Cl-].[Co+2] [CO^2+, CoCl2, reference compound] | no noticeable effect | > 1020 | > 1020 | > 1020 | > 1020 | > 1020 | > 1020 | 512 | 256 | – | – | – | – |
| O=S(=O)([O-])[O-].[Cu+2] [Cu, CuSO4, reference compound] | – | > 1020 | > 1020 | > 1020 | 1020 | – | – | – | – | no significant effect | no significant effect | 103 ± 19 | Relative Aβ40 aggregation rate (% control) (Aβ40 peptide [2]; experiment C, supplemental metal 100 μM): 77 ± 2 % control; Aβ40 peptide aggregation under all pHs tested (Aβ40 peptide [2]): negligible; OD600 (C. jejuni 81-176; CuSO4 2 uM): 0.29; OD600 (C. jejuni 81-176; CuSO4 4 uM): 0.23; OD600 (C. jejuni 81-176; CuSO4 8 uM): 0.31; OD600 (C. jejuni 81-176; CuSO4 16 uM): 0.38; OD600 (C. jejuni 81-176; CuSO4 32 uM): 0.26; OD600 (C. jejuni 81-176; CuSO4 64 uM): 0.27; OD600 (C. jejuni 81-176; CuSO4 128 uM): 0.23; OD600 (C. jejuni 81-176; CuSO4 256 uM): 0.38; OD600 (C. jejuni 81-176; CuSO4 512 uM): 0.28; OD600 (C. jejuni 81-176; CuSO4 1024 uM): 0.43; C. jejuni Average CFUs per g of cecum (x10^8) [3]: 5.95 x10^8 CFUs per g of cecum; Chickens Cj-free (n=) ([3]; total n=4): 0; Chickens Colonized (n=) ([3]; total n=4): 4 |
| CC(=NO)C(C)=NO [D-1885, Dimethylglyoxime] | – | – | – | – | – | – | – | – | – | – | – | – | condition of animals given chelator alone [4]: appeared ill |
| O=S(=O)([O-])[O-].[Mn+2] [MnSO4] | no noticeable effect | – | – | – | – | – | – | – | – | – | – | – | – |
| O=S(=O)([O-])[O-].[Ni+2] [Ni, NiSO4, reference compound] | no noticeable effect | > 1020 | > 1020 | > 1020 | > 1020 | > 1020 | > 1020 | > 1020 | > 1020 | 2.5 fold | 5.7 fold | 252 ± 8 | Ni(II)-induced Aβ40 aggregation at pH 6.5, compared to pH 7.5 (Aβ40 peptide [2]; NiSO4 25 mM (so in the source)): faster; Ni(II)-induced Aβ40 aggregation at pH 8.5 (Aβ40 peptide [2]; NiSO4 25 mM (so in the source)): absent; Relative Aβ40 aggregation rate (% control) (Aβ40 peptide [2]; [11]): 567 ± 61 % control; DH (enthalpy) (Aβ40 peptide [5]): -1.2 kcal/mol; DS (entropy) (Aβ40 peptide [5]): 86; apparent stoichiometry (Aβ40 peptide [5]): 0.7 mole Ni(II) per mole of Aβ40 p; Kd (Aβ40 peptide [5]; pH 7.4, read-out: apparent Kd): 4.2 µM and ~4.2 µM; MBC (C. jejuni 81-176; metal with DMG 2 mM): > 1020 µM; MIC (C. jejuni 81-176; metal with DMG 2 mM): > 1020 µM |
| O=S(=O)([O-])[O-].[Zn+2] [Zn, ZnSO4, reference compound] | no noticeable effect | > 1024 | 512 | > 1024 | 512 | > 1024 | 512 | > 1024 | 512 | 5 fold | 14 fold | 505 ± 29 | Relative Aβ40 aggregation rate (% control) (Aβ40 peptide [2]; [11]): 1423 ± 258 % control; Aβ40 peptide aggregation under all pHs tested (Aβ40 peptide [2]): fastest and sharpest increase in fluorescence; MBC (C. jejuni 81-176; metal with DMG 2 mM): > 1024 µM; MIC (C. jejuni 81-176; metal with DMG 2 mM): 512 µM; Kd (Aβ40 peptide [6]): 7 ± 3 µM |
| CCN(CC)C(=S)SSC(=S)N(CC)CC [disulfiram] | – | – | – | – | – | – | – | – | – | – | – | – | acute oral LD50 [7]: 1.013 mg/kg; LD50 amount per mouse [8]: approximately 20 μg |

Reference: patent US20220117266A1, “NICKEL CHELATION THERAPY” (priority 2019, published 2022)
